Data as given in US20140179609A1, “Whey protein hydrolysate containing tryptophan peptide consisting of alpha lactalbumin and the use thereof” (Technische Universität Dresden, priority 2008, published 2014).
Where a SMILES comes first, the peptide text is derived from it.

T1: ACE (Oryctolagus cuniculus, UniProt P12822)
T1 construct: The employed ACE is the rabbit lung enzyme obtained from Sigma-Aldrich; purchased Sigma-Aldrich; host or cells: rabbit lung (tissue-derived enzyme)
T1 sequence (P12822 34-1310): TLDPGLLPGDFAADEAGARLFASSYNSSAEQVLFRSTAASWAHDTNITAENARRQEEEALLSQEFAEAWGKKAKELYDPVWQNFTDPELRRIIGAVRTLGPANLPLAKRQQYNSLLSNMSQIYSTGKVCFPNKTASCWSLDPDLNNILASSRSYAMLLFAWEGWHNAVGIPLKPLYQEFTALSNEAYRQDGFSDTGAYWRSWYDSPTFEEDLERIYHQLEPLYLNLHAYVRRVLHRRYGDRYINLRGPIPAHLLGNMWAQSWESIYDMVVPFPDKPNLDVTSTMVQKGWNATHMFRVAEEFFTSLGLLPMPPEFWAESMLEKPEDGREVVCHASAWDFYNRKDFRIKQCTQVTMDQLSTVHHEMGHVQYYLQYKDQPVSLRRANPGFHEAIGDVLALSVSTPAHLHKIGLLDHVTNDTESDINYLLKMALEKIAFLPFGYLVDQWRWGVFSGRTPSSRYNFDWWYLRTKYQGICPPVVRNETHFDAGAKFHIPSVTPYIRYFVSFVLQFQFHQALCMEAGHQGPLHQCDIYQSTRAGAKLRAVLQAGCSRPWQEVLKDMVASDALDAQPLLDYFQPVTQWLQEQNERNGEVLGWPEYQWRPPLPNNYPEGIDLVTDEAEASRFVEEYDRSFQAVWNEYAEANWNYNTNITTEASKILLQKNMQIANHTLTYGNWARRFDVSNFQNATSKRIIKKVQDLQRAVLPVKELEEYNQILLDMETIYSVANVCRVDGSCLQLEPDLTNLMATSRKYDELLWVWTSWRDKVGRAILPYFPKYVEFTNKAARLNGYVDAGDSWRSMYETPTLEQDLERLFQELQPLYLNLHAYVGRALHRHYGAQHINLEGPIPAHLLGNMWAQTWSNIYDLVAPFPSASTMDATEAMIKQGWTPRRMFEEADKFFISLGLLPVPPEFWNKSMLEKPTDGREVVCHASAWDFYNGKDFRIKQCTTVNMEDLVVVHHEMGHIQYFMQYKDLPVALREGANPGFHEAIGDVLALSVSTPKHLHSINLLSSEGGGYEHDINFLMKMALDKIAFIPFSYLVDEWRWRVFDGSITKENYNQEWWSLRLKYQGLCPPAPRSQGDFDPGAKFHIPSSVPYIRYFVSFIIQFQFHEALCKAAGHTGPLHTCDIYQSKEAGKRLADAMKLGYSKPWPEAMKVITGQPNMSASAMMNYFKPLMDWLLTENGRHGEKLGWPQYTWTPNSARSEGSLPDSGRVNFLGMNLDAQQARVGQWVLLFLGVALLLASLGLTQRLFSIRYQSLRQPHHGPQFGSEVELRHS


Legend:
[1] = system: spontaneously hypertensive rats; assay: Feeding tests on spontaneously hypertensive rats; type: in vivo, rat
Source text: Administered was a preparation that contained the peptides according to the invention (PP), feed with intact whey protein (MP) as well as, as a control, a rat feed with captopril, a known ACE inhibiting agent as well as a placebo.
The basic importance of whey protein hydrolysates containing the tryptophan-containing peptides of the present invention for affecting the arterial blood pressure was objectified in animal tests on spontaneously hypertensive rats (FIG. 4). Here, the whey protein hydrolysate in comparison to a control diet caused a significant lowering of systolic blood pressure by 21±6 mm Hg after 7 weeks. Feeding captopril (ACE inhibitor of the first generation) lowered over the same time period the blood pressure by 28±7 mm Hg.
This implies comprehensive heart-protective and vessel-protective effects caused by the whey protein hydrolysate.

proteases = assay: Stability of the dipeptides during enzymatic hydrolysis of whey protein (detection by GPC / LC-ESI-TOF-MS); conditions: hydrolysis with trypsin, Alcalase, Flavourzyme; found by GPC in all hydrolysates after three hours
Experimental: The whey protein Milei60 was hydrolyzed enzymatically by proteolytically acting enzymes, i.e., trypsin obtained from porcine pancreas (EC 3.4.21.4) as well as two further proteases, i.e., Alcalase® (Bacillus licheniformis) and Flavourzyme (Aspergillus oryzae). The following Table illustrates how hydrolysis is carried out.
The release of dipeptides Trp-Leu and Ile-Trp according to the invention during the course of hydrolysis was analyzed by GPC and LC-ESI-TOF-MS (liquid chromatography/electrospray ionization time of flight mass spectrometry).
In GPC the identification of the dipeptides was carried out by comparison with peaks of the standard peptides that were carried along.
The strongly ACE-inhibiting peptide Ile-Trp was detected unequivocally in the hydrolysates after a hydrolysis duration of three hours. Therefore, it appears to be accessible for the proteases only after a certain time has lapsed; this is true also for Trp-Leu.

ACE = target: T1, ACE; assay: ACE activity test (substrate HHL, hippuric acid quantified by RP HPLC); type: biochemical, rabbit; conditions: for IC50: dipeptides from Bachem, test as in Example 2, read-out: IC50 [μM] ACE-inhibiting activity; for ACE inhibiting action (in words): samples heat-treated at 100° C. for 10 minutes
Experimental: The determination of the ACE activity of the protein hydrolysates was carried out similar to a test disclosed by Cushman and Cheung in […] (Cushman, D. W. and Cheung, H.-S. Spectrophotometric Assay and Properties of Angiotensin-Converting Enzyme of Rabbit Lung, Biochemical Pharmacology, 1971, 20, 1637-1648). However, several modifications were carried out. The employed ACE is the rabbit lung enzyme obtained from Sigma-Aldrich. As a substrate N-benzoyl-glycyl-L-histidyl-L-leucin (HHL) was used which is considered to be analog to the natural substrate angiotensin I. ACE catalyzes the hydrolysis to L-histidyl-L-leucin (HL) and N-benzoyl-glycin (hippuric acid):
Since hippuric acid is UV-active (λmax=228 nm), it is possible, based on its contents determined by RP HPLC, to define the conversion rate and thus the enzyme activity. By means of a concentration series of the respective inhibitor solution, the inhibitor concentration can be determined that is required for lowering the ACE activity by one half (IC50).
In each series of measurements two enzyme blind values were carried along in which, in place of the sample solution, the same volume of double distilled water had been added. The blind value corresponds to 100% ACE activity. Calculation of the IC50 values was done by the software program SigmaPlot 5.0.
In addition to the samples that had been incubated for different lengths of time, also a blind value sample was analyzed that contained all employed enzymes and the whey protein powder in the same concentration as the hydrolysis samples. However, after addition of all substances, the enzymatic action was inactivated immediately by 10-minute incubation at 100° C. Also, possible effects by individual compounds on ACE were tested. For this purpose, the enzymes were inactivated and individually tested with respect to possible ACE inhibiting action. The same procedure was carried out with the whey protein powder. Whey protein powder that was not heat-treated was also tested with respect to its inhibiting action. For the determination of the IC50 value of the hydrolysis samples several concentrations were used in the ACE activity test. A protein concentration of 1000 mg protein/I was used as the basis. This parent solution was diluted 1:2, 1:5, 1:10, 1:20, 1:50, 1:100 and all solutions were tested with respect to their ACE inhibiting effect. Evaluation was also done with SigmaPlot 5.0.
In Table 12 the parameters measured by RP HPLC and LC-ESI-TOF-MS for the dipeptides according to the invention are listed. The Table contains also the IC50 values that were obtained for the dipeptides. […]

| Molecule | stability with respect to further digestion to the amino acids (proteases) | IC50 (ACE) [µM] | ACE inhibiting action (in words) (ACE) | also measured |
| --- | --- | --- | --- | --- |
| C[C@H](CS)C(=O)N1CCC[C@H]1C(=O)O [captopril] | – | – | – | lowering of systolic blood pressure ([1]; after 7 weeks, in comparison to a control diet): 28±7 mm Hg; reduced heart mass ([1]; in comparison to controls): 16% |
| CC(C)C[C@H](NC(=O)[C@@H](N)Cc1c[nH]c2ccccc12)C(=O)O [Trp-Leu] (H-Trp-Leu-OH; N-terminus and C-terminus assumed) | stable with respect to further digestion to the amino acids | 10 | – | – |
| CC[C@H](C)[C@H](N)C(=O)N[C@@H](Cc1c[nH]c2ccccc12)C(=O)O [Ile-Trp] | stable with respect to further digestion to the amino acids | 0.7 | – | – |
| Alcalase: protease from Bacillus licheniformis, heat-inactivated hydrolysis enzyme (protein, UniProt P00780 106-379, looked up) Subtilisin Carlsberg: AQTVPYGIPLIKADKVQAQGFKGANVKVAVLDTGIQASHPDLNVVGGASFVAGEAYNTDGNGHGTHVAGTVAALDNTTGVLGVAPSVSLYAVKVLNSSGSGSYSGIVSGIEWATTNGMDVINMSLGGASGSTAMKQAVDNAYAKGVVVVAAAGNSGSSGNTNTIGYPAKYDSVIAVGAVDSNSNRASFSSVGAELEVMAPGAGVYSTYPTNTYATLNGTSMASPHVAGAAALILSKHPNLSASQVRNRLSSTATYLGSSFYYGKGLINVEAAAQ | – | – | neither the inactivated enzymes, individually or as a mixture, nor the protein had an effect on ACE | – |
| trypsin: trypsin obtained from porcine pancreas (EC 3.4.21.4), heat-inactivated hydrolysis enzyme (protein, UniProt P00761 9-231, looked up) Trypsin: IVGGYTCAANSIPYQVSLNSGSHFCGGSLINSQWVVSAAHCYKSRIQVRLGEHNIDVLEGNEQFINAAKIITHPNFNGNTLDNDIMLIKLSSPATLNSRVATVSLPRSCAAAGTECLISGWGNTKSSGSSYPSLLQCLKAPVLSDSSCKSSYPGQITGNMICVGFLEGGKDSCQGDSGGPVVCNGQLQGIVSWGYGCAQKNKPGVYTKVCNYVNWIQQTIAAN | – | – | neither the inactivated enzymes, individually or as a mixture, nor the protein had an effect on ACE | – |
